In patent US12492188B2, “1H-benzo[D]imidazole derivatives as TLR9 inhibitors for the treatment of fibrosis” (BRISTOL-MYERS SQUIBB COMPANY, priority 2020, dated 2025):
Where two headings read alike, the source gives them in different places.

Tests used:
Format in all cases: cell-based
human TLR7 = target: T1, human TLR7 (Homo sapiens, UniProt Q9NYK1); experiment: TLR7 inhibition reporter assay (HEK-Blue cells, secreted embryonic alkaline phosphatase reporter); settings: HEK-Blue cells overexpressing human TLR7, stimulated with gardiquimod 7.5 μM; read-out: TLR 7 IC50
T1 construct: host or cells: HEK-Blue cells (HEK293-derived reporter line)
T1 sequence (Q9NYK1 27-1049): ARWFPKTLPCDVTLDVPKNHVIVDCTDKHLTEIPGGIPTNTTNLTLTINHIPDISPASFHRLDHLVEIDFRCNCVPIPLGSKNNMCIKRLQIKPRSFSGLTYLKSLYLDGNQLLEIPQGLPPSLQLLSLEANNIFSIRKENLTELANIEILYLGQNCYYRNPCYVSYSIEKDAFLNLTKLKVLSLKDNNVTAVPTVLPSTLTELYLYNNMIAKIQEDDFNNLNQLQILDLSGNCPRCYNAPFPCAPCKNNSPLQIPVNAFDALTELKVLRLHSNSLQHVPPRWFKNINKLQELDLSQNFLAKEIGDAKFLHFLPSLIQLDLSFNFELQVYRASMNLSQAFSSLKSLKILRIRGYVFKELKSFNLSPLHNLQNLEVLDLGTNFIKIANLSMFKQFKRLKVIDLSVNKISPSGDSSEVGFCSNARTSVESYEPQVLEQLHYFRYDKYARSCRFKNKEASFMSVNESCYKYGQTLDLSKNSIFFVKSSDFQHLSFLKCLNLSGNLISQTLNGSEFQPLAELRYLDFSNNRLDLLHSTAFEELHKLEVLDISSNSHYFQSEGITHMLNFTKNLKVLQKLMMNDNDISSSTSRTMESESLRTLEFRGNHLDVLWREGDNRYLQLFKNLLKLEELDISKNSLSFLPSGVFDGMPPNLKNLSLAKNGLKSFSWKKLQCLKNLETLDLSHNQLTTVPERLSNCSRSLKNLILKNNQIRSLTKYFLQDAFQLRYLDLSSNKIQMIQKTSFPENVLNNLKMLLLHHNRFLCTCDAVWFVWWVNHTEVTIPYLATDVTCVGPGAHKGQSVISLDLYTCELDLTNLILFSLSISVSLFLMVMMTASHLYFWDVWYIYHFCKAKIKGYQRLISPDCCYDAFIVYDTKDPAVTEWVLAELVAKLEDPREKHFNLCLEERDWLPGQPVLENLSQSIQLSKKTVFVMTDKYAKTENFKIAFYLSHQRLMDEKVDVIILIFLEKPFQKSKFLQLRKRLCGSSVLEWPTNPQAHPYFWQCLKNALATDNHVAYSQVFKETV
How it was run: (§1)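 Inhibitors are tested in dose response (0.05 nM–50 μM) on HEK-Blue reporter cells expressing human TLR7, TLR8 or TLR9. After 30 min at room temperature, each line is stimulated with its own agonist (gardiquimod 7.5 μM, R848 15.9 μM or ODN2006 5 nM, final) and SEAP is measured 22 h later.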

human TLR9 = target: T2, human TLR9 (Homo sapiens, UniProt Q9NR96); experiment: TLR9 inhibition reporter assay (HEK-Blue cells, secreted embryonic alkaline phosphatase reporter)
T2 construct: host or cells: HEK-Blue cells (HEK293-derived reporter line)
T2 sequence (Q9NR96 26-1032): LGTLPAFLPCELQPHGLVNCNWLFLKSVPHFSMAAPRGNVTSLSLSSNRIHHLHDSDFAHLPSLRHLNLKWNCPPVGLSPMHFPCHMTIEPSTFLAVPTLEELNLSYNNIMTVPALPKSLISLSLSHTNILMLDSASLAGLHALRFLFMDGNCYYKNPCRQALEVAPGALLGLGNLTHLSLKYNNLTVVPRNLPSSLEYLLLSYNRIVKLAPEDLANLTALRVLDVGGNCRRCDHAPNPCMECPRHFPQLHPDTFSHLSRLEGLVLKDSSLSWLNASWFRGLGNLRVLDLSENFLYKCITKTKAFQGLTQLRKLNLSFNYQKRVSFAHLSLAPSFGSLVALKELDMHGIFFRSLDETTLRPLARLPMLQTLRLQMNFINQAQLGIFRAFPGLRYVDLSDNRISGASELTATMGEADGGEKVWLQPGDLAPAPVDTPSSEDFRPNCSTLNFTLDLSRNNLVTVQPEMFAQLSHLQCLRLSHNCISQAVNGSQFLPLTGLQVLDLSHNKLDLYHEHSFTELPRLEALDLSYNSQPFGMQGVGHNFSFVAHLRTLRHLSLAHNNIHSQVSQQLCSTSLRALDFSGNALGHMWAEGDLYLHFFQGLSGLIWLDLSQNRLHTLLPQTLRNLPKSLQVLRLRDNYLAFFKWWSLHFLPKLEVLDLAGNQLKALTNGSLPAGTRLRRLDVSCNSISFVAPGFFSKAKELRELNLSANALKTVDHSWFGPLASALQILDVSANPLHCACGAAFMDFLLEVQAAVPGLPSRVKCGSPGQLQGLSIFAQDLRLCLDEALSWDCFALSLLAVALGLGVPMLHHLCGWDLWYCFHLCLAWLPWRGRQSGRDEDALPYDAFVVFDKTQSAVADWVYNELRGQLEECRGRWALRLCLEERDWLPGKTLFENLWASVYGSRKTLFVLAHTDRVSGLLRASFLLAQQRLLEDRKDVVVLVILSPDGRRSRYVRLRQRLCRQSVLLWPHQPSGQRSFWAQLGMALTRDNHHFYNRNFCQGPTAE
How it was run: as §1

human TLR8 = target: T3, human TLR8 (Homo sapiens, UniProt Q9NR97); experiment: TLR8 inhibition reporter assay (HEK-Blue cells, secreted embryonic alkaline phosphatase reporter); settings: HEK-Blue cells overexpressing human TLR8, stimulated with R848 15.9 μM; read-out: TLR 8 IC50
T3 construct: host or cells: HEK-Blue cells (HEK293-derived reporter line)
T3 sequence (Q9NR97 27-1041): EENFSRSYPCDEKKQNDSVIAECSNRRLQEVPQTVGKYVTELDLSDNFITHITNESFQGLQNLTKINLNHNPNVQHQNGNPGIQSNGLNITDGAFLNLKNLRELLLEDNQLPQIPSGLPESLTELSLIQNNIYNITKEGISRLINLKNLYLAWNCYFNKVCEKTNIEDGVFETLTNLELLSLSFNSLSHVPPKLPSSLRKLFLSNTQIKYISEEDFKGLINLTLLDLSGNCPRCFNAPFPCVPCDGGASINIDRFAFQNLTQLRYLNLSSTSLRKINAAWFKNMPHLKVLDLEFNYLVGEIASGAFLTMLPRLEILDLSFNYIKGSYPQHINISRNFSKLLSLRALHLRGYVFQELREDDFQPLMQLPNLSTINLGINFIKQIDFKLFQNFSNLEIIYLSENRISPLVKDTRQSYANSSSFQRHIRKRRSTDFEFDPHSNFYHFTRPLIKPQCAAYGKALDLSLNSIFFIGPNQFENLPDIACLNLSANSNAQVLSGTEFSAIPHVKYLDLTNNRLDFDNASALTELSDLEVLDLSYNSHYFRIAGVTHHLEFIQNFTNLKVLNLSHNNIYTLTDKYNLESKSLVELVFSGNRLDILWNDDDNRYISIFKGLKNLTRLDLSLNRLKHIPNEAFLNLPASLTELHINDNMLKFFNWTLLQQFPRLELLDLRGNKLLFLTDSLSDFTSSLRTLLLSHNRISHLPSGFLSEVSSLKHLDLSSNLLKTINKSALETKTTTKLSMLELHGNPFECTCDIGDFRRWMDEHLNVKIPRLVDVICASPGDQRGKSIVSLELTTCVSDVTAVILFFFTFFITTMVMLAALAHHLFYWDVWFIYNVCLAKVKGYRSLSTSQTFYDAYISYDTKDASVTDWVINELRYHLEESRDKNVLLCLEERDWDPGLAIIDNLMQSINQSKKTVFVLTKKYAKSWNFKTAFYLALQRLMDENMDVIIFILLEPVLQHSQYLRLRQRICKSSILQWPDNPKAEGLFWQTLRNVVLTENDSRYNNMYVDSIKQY
How it was run: as §1

[1] = HEK-Blue cells overexpressing human TLR9, stimulated with ODN2006 5 nM, 22 hour incubation, reporter readout
[2] = HEK-Blue cells overexpressing human TLR9, stimulated with ODN2006 5 nM, read-out: TLR 9 IC50
[3] = HEK-Blue human TLR9 reporter cells

SMILES: CCn1c(-c2ccc(OC)c(OC)c2)nc2cc(C3CCN(C4CCN(C(C)C)CC4)CC3)ccc21 (single isomer, unassigned) [Example 9, 2-(3,4-dimethoxyphenyl)-1-ethyl-5-(1′-isopropyl-[1,4′-bipiperidin]-4-yl)-1H-benzo[d]imidazole]
- IC50 (human TLR7): 2700 nM
- IC50 (human TLR9; [1]): 250 nM
- IC50 (human TLR9; [2]): 249 nM
- IC50 (human TLR8): 1300 nM

SMILES: COCCN1CCCC(N2CCC(c3cc(C)c4nc(-c5ccc(S(C)(=O)=O)cc5)n(C)c4c3)CC2)CC1 (single isomer, unassigned) [Example 308, 6-(1-(1-(2-methoxyethyl)azepan-4-yl)piperidin-4-yl)-1,4-dimethyl-2-(4-(methylsulfonyl)phenyl)-1H-benzo[d]imidazole]
- IC50 (human TLR7): 2600 nM
- IC50 (human TLR9; [2]): 6.7 nM
- IC50 (human TLR9; [3]): 6.7 nM
- IC50 (human TLR8): > 50000 nM

SMILES: COc1ccc(-c2nc3c(C)cc(C4CCN(C5CCN(CC(C)C)CC5)CC4)cc3[nH]2)cc1OC [Example 43, 2-(3,4-dimethoxyphenyl)-6-(1′-isobutyl-[1,4′-bipiperidin]-4-yl)-4-methyl-1H-benzo[d]imidazole tris(2,2,2-trifluoroacetate)]
- IC50 (human TLR7): 650 nM
- IC50 (human TLR9; [1]): 9.8 nM
- IC50 (human TLR9; [2]): 9.8 nM
- IC50 (human TLR8): 31000 nM

SMILES: Cn1c(-c2ccc(S(C)(=O)=O)cc2)nc2cc(F)c(C3CCN(C4CC5CCC(C4)N5CC4CC4)CC3)cc21 (stereo not shown) [Example 230, 6-(1-(8-(cyclopropylmethyl)-8-azabicyclo[3.2.1]octan-3-yl)piperidin-4-yl)-5-fluoro-1-methyl-2-(4-(methylsulfonyl)phenyl)-1H-benzo[d]imidazole]
- IC50 (human TLR7): 32400 nM
- IC50 (human TLR9): 36 nM
- IC50 (human TLR9; [2]): 36 nM
- IC50 (human TLR8): > 50000 nM

SMILES: Cn1c(-c2ccc(S(C)(=O)=O)cc2)nc2cc(C3CCN(C4CCN(C5CCC5)CC4)CC3)c(F)cc21 [Example 243, 5-(1′-cyclobutyl-[1,4′-bipiperidin]-4-yl)-6-fluoro-1-methyl-2-(4-(methylsulfonyl)phenyl)-1H-benzo[d]imidazole]
- IC50 (human TLR7): > 50000 nM
- IC50 (human TLR9): 940 nM
- IC50 (human TLR9; [2]): 943 nM
- IC50 (human TLR8): > 50000 nM

SMILES: COc1ccc(-c2nc3ccc(C4CCN(C5CCN(CC(C)C)CC5)CC4)cc3n2CC(F)F)cc1OC [Example 32, 1-(2,2-difluoroethyl)-2-(3,4-dimethoxyphenyl)-6-(1′-isobutyl-[1,4′-bipiperidin]-4-yl)-1H-benzo[d]imidazole]
- IC50 (human TLR7): 5700 nM
- IC50 (human TLR9; [1]): 210 nM
- IC50 (human TLR9; [2]): 212 nM
- IC50 (human TLR8): > 50000 nM

SMILES: COc1ccc(-c2nc3ccc(C4CCN(C5CCN(CC(C)C)CC5)CC4)cc3[nH]2)cc1OC [Example 28, 2-(3,4-dimethoxyphenyl)-6-(1′-isobutyl-[1,4′-bipiperidin]-4-yl)-1H-benzo[d]imidazole]
- IC50 (human TLR7): 2700 nM
- IC50 (human TLR9; [1]): 19 nM
- IC50 (human TLR9; [2]): 19 nM
- IC50 (human TLR8): > 50000 nM

SMILES: CC(C)N1C2CCC1CC(N1CCC(c3cc(F)c4c(c3)nc(-c3ccc(S(C)(=O)=O)cc3)n4C)CC1)C2 (single isomer, unassigned) [Example 92, 7-fluoro-5-(1-(8-isopropyl-8-azabicyclo[3.2.1]octan-3-yl)piperidin-4-yl)-1-methyl-2-(4-(methylsulfonyl)phenyl)-1H-benzo[d]imidazole]
- IC50 (human TLR7): > 50000 nM
- IC50 (human TLR9; [1]): 110 nM
- IC50 (human TLR9; [2]): 105 nM
- IC50 (human TLR8): > 50000 nM

SMILES: Cc1cc(C2CCN(C3CC4CCC(C3)N4CC(C)C)CC2)cc2[nH]c(-c3ccc(S(C)(=O)=O)cc3)nc12 (stereo not shown) [Example 121, 6-(1-(8-isobutyl-8-azabicyclo[3.2.1]octan-3-yl)piperidin-4-yl)-4-methyl-2-(4-(methylsulfonyl)phenyl)-1H-benzo[d]imidazole]
- IC50 (human TLR7): 14500 nM
- IC50 (human TLR9; [1]): 19 nM
- IC50 (human TLR8): > 25000 nM

SMILES: Cn1c(-c2ccc(S(C)(=O)=O)cc2)nc2cc(C3CCN(C4CC5CCC(C4)N5CC4CC4)CC3)c(F)cc21 (single isomer, unassigned) [Example 249, 5-(1-(8-(cyclopropylmethyl)-8-azabicyclo[3.2.1]octan-3-yl)piperidin-4-yl)-6-fluoro-1-methyl-2-(4-(methylsulfonyl)phenyl)-1H-benzo[d]imidazole]
- IC50 (human TLR7): 21500 nM
- IC50 (human TLR9): 32 nM
- IC50 (human TLR9; [2]): 32 nM
- IC50 (human TLR8): > 50000 nM

SMILES: Cc1cc(C2CCN(C3CC4CCC(C3)N4CC(C)C)CC2)cc2[nH]c(-c3ccc(S(C)(=O)=O)c(F)c3)nc12 (stereo not shown) [Example 346, 2-(3-fluoro-4-(methylsulfonyl)phenyl)-6-(1-(8-isobutyl-8-azabicyclo[3.2.1]octan-3-yl)piperidin-4-yl)-4-methyl-1H-benzo[d]imidazole]
- IC50 (human TLR7): 7600 nM
- IC50 (human TLR9; [2]): 56 nM
- IC50 (human TLR9; [3]): 56 nM
- IC50 (human TLR8): > 25000 nM
